Laboratory results from patent US8946149B2, “Use of exendin and analogs thereof to delay or prevent cardiac remodeling” (Amylin Pharmaceuticals, LLC, priority 2005, dated 2015).

What was measured:
MI-induced rat model [1] = test: Whole body composition, heart, lung weight and infarct size in rats with CHF after LAD ligation; assay type: in vivo, Sprague-Dawley rats; conditions: for B.W / Fat mass / Fluid mass / Infarct size / LV weight / LV weight/B.W. / Lean mass / Lung weight / Lung weight/B.W. / RV weight / RV weight/B.W.: 13th week of MI, mean ± SEM
Method: (§1) Male Sprague-Dawley® rats (250-300 g) are anesthetized by using 5% isoflurane and a left thoracotomy was performed. The left main anterior descending artery (LAD) was ligated to induce myocardial infarction. In addition, sham animals (n=10) were subjected to the same surgical procedure without ligation of the LAD.
(§2) After two weeks, rats were treated with 2.5 pmol/kg/min GLP-1 (n=11) (GLPL), 25 pmol/kg/min GLP-1 (n=12) (GLPH), 1.67 pmol/kg/min an exendin agonist, AC3174, (n=12) (AC3174L), 5 pmol/kg/min exendin agonist (n=7) (AC3174H), or vehicle (n=14) via subcutaneous infusion for 11 weeks. Echocardiography was performed at the 3rd, 5th, 9th, and 13th week of myocardial infarction. Left ventricular (LV) end systolic dimension (ESD) and diastolic dimension (EDD), LV systolic volume and diastolic volume, left atrial volume were recorded. At the 13th week of MI, the hearts were excised, the LV mass were weighed and LV mass/body weight ratio was determined.

MI-induced rat model [2] = test: Echocardiography and cardiac function (E/A ratio, LVEDP, cardiac output, +dp/dtmax, LV dimensions) in rats after myocardial infarction; assay type: in vivo, Sprague-Dawley rats
Method: as §1, §2

MI-induced rat model [3] = test: Treadmill test, plasma lactate and insulin sensitivity in rats after myocardial infarction; assay type: in vivo, Sprague-Dawley rats
cloned GLP-1 receptor = conditions: transfected cells; cited from earlier work
[4] = GLPH: GLP-1 25 pmol/kg/min s.c. infusion 11 weeks
[5] = GLPL: GLP-1 2.5 pmol/kg/min s.c. infusion 11 weeks

Q: For GLP-1 (7-36) amide, which “reduction of infarct size compared to the control group” value (MI-induced rat model [1]; 25 pmol/kg/min s.c. infusion, p<0.05) is on record?
A: 30%

Q: And the B.W (MI-induced rat model [1]; [4])?
A: 518 ± 12 g

Q: What about the Fat mass (MI-induced rat model [1]; [4]) of the same substance?
A: 51 ± 9 g

Q: What about the Fluid mass (MI-induced rat model [1]; [4]) of the same substance?
A: 331 ± 15 g

Q: And the Infarct size (MI-induced rat model [1]; [4])?
A: 29 ± 2%

Q: And the LV weight (MI-induced rat model [1]; [4])?
A: 1.13 ± 0.03 g

Q: What about the “LV weight/B.W.” value (MI-induced rat model [1]; [4]) of the same substance?
A: 0.22 ± 0.01 %

Q: What about the Lean mass (MI-induced rat model [1]; [4]) of the same substance?
A: 35 ± 2 g

Q: What about the Lung weight (MI-induced rat model [1]; [4]) of the same substance?
A: 1.66 ± 0.13 g

Q: What about the “Lung weight/B.W.” value (MI-induced rat model [1]; [4]) of the same substance?
A: 0.32 ± 0.02 %

Q: What about the RV weight (MI-induced rat model [1]; [4]) of the same substance?
A: 0.23 ± 0.01 g

Q: What about the “RV weight/B.W.” value (MI-induced rat model [1]; [4]) of the same substance?
A: 0.04 ± 0.00 %

Q: And the B.W (MI-induced rat model [1]; [5])?
A: 523 ± 14 g

Q: What about the Fat mass (MI-induced rat model [1]; [5]) of the same substance?
A: 45 ± 6 g

Q: And the Fluid mass (MI-induced rat model [1]; [5])?
A: 332 ± 11 g

Q: What about the Infarct size (MI-induced rat model [1]; [5]) of the same substance?
A: 30 ± 2%

Q: What about the LV weight (MI-induced rat model [1]; [5]) of the same substance?
A: 1.26 ± 0.05 g

Q: What about the “LV weight/B.W.” value (MI-induced rat model [1]; [5]) of the same substance?
A: 0.24 ± 0.01%

Q: And the Lean mass (MI-induced rat model [1]; [5])?
A: 37 ± 2 g

Q: And the Lung weight (MI-induced rat model [1]; [5])?
A: 1.94 ± 0.35 g

Q: And the “Lung weight/B.W.” value (MI-induced rat model [1]; [5])?
A: 0.37 ± 0.07%

Q: And the RV weight (MI-induced rat model [1]; [5])?
A: 0.22 ± 0.01 g

Q: What about the “RV weight/B.W.” value (MI-induced rat model [1]; [5]) of the same substance?
A: 0.04 ± 0.00 %

Q: What about the “effect on LV weight (summary)” value (MI-induced rat model [1]; chronic treatment) of the same substance?
A: attenuated

Q: What about the “effect on infarction size (summary)” value (MI-induced rat model [1]; chronic treatment) of the same substance?
A: reduced

Q: What about the “effect on the increase of E/A ratio during CHF progression” value (MI-induced rat model [2]; at each dose, s.c. infusion 11 weeks, 13 weeks after MI, vs control (+116% vs sham)) of the same substance?
A: prevented increases

Q: And the “effect on enlargement of LV chamber” value (MI-induced rat model [2]; chronic treatment)?
A: slowed

Q: What about the “effect on cardiac output” value (MI-induced rat model [2]; s.c. infusion 11 weeks, control reduced by 19% vs sham) of the same substance?
A: normalized

Q: What about the “effect on contractility (+dp/dtmax)” value (MI-induced rat model [2]; s.c. infusion 11 weeks, control reduced by 24% vs sham) of the same substance?
A: normalized

Q: And the “effect on remodeling (LV mass, LV end diastolic dimension and systolic dimension increase)” value (MI-induced rat model [2]; s.c. infusion 11 weeks, progression of CHF)?
A: significantly reduced

Q: And the “effect on LV end diastolic pressure (LVEDP) elevation” value (MI-induced rat model [2]; s.c. infusion 11 weeks, vehicle group +97% vs sham)?
A: eliminated

Q: What about the “effect on exercise capacity (EC)” value (MI-induced rat model [3]; at each dose, treadmill test) of the same substance?
A: significantly improved

Q: What about the “effect on exercise efficiency (EC/VO2)” value (MI-induced rat model [3]; at each dose, treadmill test) of the same substance?
A: significantly improved

Q: What about the “effect on baseline plasma lactate” value (MI-induced rat model [3]; chronic treatment) of the same substance?
A: attenuated

Q: What about the “effect on exercise capacity/peak lactate ratio” value (MI-induced rat model [3]; chronic treatment) of the same substance?
A: improved

Q: What about the “effect on insulin sensitivity” value (MI-induced rat model [3]; chronic treatment) of the same substance?
A: improved

Q: Which “action at the cloned GLP-1 receptor (cAMP)” value (cloned GLP-1 receptor) does the source give for “exendin[9-39]: truncated exendin peptide, a carboxyamidated molecule, antagonist of GLP-1” here?
A: antagonist
